Where a chain is given by its changes, count along the chain named.
Experiments:
[1] = molecular target: T1, endoxifen-responsive dominant negative Zap70 polypeptide including an ER(T2) domain having a G400L mutation (Homo sapiens, UniProt P03372, G400L/L544A/M543A); experiment: Endoxifen pIC50 in NFAT-Luciferase reporter assay, G400L construct (Example 8); assay type: cell-based; details: Jurkat E6.1 cells, 10 ng G400L construct, 1:30 Immunocult CD3/CD28/CD2, 19 hours
T1 construct: expressed in transfected cells; host or cells: Jurkat E6.1 cells, transient transfection
T1 sequence (P03372 with tags, fused parts or gaps G400L/M543A/L544A): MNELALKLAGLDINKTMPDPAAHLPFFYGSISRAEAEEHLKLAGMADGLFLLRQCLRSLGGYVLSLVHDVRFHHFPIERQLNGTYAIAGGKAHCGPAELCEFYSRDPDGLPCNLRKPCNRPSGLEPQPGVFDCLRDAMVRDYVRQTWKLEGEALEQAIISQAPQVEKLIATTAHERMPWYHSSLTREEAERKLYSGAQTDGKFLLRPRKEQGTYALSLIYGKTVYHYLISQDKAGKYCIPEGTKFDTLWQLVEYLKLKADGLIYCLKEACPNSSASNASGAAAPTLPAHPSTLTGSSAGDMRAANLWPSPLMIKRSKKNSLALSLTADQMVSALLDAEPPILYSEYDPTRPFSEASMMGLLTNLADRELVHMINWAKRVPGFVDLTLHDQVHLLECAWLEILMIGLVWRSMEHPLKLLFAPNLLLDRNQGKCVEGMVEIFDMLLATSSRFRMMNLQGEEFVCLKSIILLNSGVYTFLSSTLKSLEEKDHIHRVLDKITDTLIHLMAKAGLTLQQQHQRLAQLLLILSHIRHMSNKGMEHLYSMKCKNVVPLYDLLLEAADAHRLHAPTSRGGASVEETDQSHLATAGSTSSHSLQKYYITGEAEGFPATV
Procedure: (§1) To examine how effective endoxifen is at relieving the inhibition or masking of a dominant negative signaling moiety of a trigger-responsive dominant negative signaling polypeptide by an ER(T2) domain including either a G400V or a G400L mutation, Jurkat E6.1 cells were transiently transfected with 90 ng NFAT-Luciferase reporter construct and 10 ng of a G400V or G400L construct. The transfected cells were stimulated the addition of 1:30 Immunocult CD3/CD28/CD2 tetrameric antibody mixture, and treated with or without endoxifen for 19 hours before assaying for luciferase activity. Results were normalized to maximum TCR stimulation with Immunocult alone, with 0% representing the activity of unstimulated transfected cells. Points represent mean activity from sextuplicate wells with error bars representing SEM. pIC50's were calculated using a variable slope sigmoidal dose-response model using GraphPad Prism.

[2] = molecular target: T2, endoxifen-responsive dominant negative Zap70 polypeptide including an ER(T2) domain having a G400V mutation (Homo sapiens, UniProt P03372, G400V/L544A/M543A); experiment: Endoxifen pIC50 in NFAT-Luciferase reporter assay, G400V construct (Example 8); assay type: cell-based; details: Jurkat E6.1 cells, 10 ng G400V construct, 1:30 Immunocult CD3/CD28/CD2, 19 hours
T2 construct: expressed in transfected cells; host or cells: Jurkat E6.1 cells, transient transfection
T2 sequence (P03372 with tags, fused parts or gaps G400V/M543A/L544A): T1 sequence (P03372 with tags, fused parts or gaps G400L/M543A/L544A) with L415V
Procedure: as §1

NFAT-Luciferase reporter = NFAT-Luciferase reporter assay with SHP1(210-595) constructs, endoxifen dose response (FIG. 31); assay type: cell-based, human; details: Jurkat E6.1 cells, 1:40 Immunocult CD3/CD28, varying amounts of Z-endoxifen
Source text: (§2) Reporter constructs included firefly luciferase (Luc) under the control of an NFAT response element and firefly luciferase (Luc) under the control of an IL2 response element. Data presented in the first panel is from Jurkat E6.1 cells transiently transfected with an NFAT-Luciferase reporter construct, as well as one of (a) empty vector; (b) an expression construct encoding SHP1(210-595); and (c) an expression construct encoding SHP1(210-595)-ER(T12). Data presented in the second panel is from Jurkat E6.1 cells transiently transfected with an IL2-Luciferase reporter construct, as well as one of (a) empty vector; (b) an expression construct encoding SHP1(210-595); and (c) an expression construct encoding SHP1(210-595)-ER(T12). Transient transfections were performed using LTX and PLUS transfection reagent (ThermoFisher Scientific) according to manufacturer's protocols. Transfected cells were treated in the presence of 1:40 dilution of Immunocult CD3/CD28 tetrameric antibody mixture (StemCell Technologies, Canada), which stimulated T-cell activity. Stimulated cells were then further treated with RPMI 1640 media plus 4.8% FBS stripped with charcoal dextran (ThermoFisher Scientific), with varying amounts of Z-endoxifen (Axon-Medchem) as indicated in FIG. 31. Luciferase activity (luminescence) was measured and reported as percent induction of IL2-Luciferase.

IL2-Luciferase reporter [3] = experiment: IL2-Luciferase reporter assay with SHP1(210-595) constructs (Example 12); assay type: cell-based, human; details: Jurkat E6.1 cells, α-CD3 and α-CD28, with or without endoxifen, compared to empty vector controls
Procedure: To provide a means for assessing T cell activity, a construct containing a reporter gene, such as firefly luciferase (Luc), under the control of an IL2 response element can be used. In the present Example, Jurkat E6.1 cells were transiently transfected with an IL2-Luciferase reporter construct, as well as one of (a) empty vector; (b) an expression construct encoding SHP1(210-595); and (c) an expression construct encoding SHP1(210-595)-ER(T12). Transient transfections were performed using LTX and PLUS transfection reagent (ThermoFisher Scientific) according to manufacturer's protocols.
Transfected cells were treated in the absence or presence of 1:30 dilution of Immunocult CD3/CD28 tetrameric antibody mixture (StemCell Technologies, Canada), which stimulated T-cell activity. Stimulated cells were then further treated with RPMI 1640 media plus 4.8% FBS stripped with charcoal dextran (ThermoFisher Scientific), without Z-endoxifen or with 50 nM Z-endoxifen (Axon-Medchem). Luciferase activity (luminescence) was measured and reported as percent induction of IL2-Luciferase.

IL2-Luciferase reporter [4] = experiment: IL2-Luciferase reporter assay with SHP1(210-595) constructs, endoxifen dose response (FIG. 31); assay type: cell-based, human; details: Jurkat E6.1 cells, 1:40 Immunocult CD3/CD28, varying amounts of Z-endoxifen
Source text: as §2

| IC50 [1] | IC50 [2] | inhibition of NFAT-Luciferase reporter expression (NFAT-Luciferase reporter) | inhibition of IL2-Luciferase reporter expression (IL2-Luciferase reporter [4]) | Compound | luciferase reporter expression (percent induction of IL2-Luciferase) (IL2-Luciferase reporter [3]) |
| --- | --- | --- | --- | --- | --- |
| 1.58 nM | 6.31 nM |  |  | CC/C(=C(\c1ccc(O)cc1)c1ccc(OCCNC)cc1)c1ccccc1 [endoxifen] |  |
|  |  | endoxifen-independent manner | endoxifen-independent manner | SHP1(210-595): constitutively active SHP1 phosphatase signaling moiety, SEQ ID NO: 23 | substantially reduced expression of luciferase reporter |
